23 compounds from patent US9133187B2, “Serine/threonine kinase inhibitors” (ARRAY BIOPHARMA INC., priority 2011, dated 2015) can be followed below.

Counter-ions that a name gives are not always drawn.

Assay [1] addresses human ERK-2 (Mitogen Activated Kinase 1) (Homo sapiens (Human), UniProt P28482). The experiment in a line: ERK-2 Enzymatic Assay. Type of assay: biochemical. As to conditions: 5 nM ERK-2, 25 μM ATP, Omnia peptide S/T17; read-out: ERK Inhibition IC50. In short, it runs like this: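 Recombinant N-terminal 6-His human ERK-2 (aa 8-360, E. coli) with fluorescent Omnia peptide S/T17 substrate, ambient temperature, read kinetically every 50 s for ~30 min (Ex 340/Em 495 nm). Linear rates converted to percent of control; IC50 from four-parameter fit.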

Assay [2] concerns PMA-stimulated P90RSK(Ser380) phosphorylation in HepG2 cells. The experiment in a line: Cellular P90RSK(Ser380) Phosphorylation Assay. Type of assay: cell-based. Particulars: Homo sapiens, 1.5 h compound incubation, PMA stimulation, pP90RSK(Ser380) normalized to GAPDH, read-out: Cell Assay IC50. In short, it runs like this:
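HepG2 cells were pretreated with compound (0.5% DMSO final) for 1.5 h, then stimulated with PMA 100 ng/mL for 30 min at 37° C. Fixed, permeabilized cells were immunostained for pP90RSK(Ser380) and GAPDH. The two-channel infrared fluorescence was read, and the phospho signal was normalized to GAPDH.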

human ERK-2 (Mitogen Activated Kinase 1), sequence (P28482 8-360): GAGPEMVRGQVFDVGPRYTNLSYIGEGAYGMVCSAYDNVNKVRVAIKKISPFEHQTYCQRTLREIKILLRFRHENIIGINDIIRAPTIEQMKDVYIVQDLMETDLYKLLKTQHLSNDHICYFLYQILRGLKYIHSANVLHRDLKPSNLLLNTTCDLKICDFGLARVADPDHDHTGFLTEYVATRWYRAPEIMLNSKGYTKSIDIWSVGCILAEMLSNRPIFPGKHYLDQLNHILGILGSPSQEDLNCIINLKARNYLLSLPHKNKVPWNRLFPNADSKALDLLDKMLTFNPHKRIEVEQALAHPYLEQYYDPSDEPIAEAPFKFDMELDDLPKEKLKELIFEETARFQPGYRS

In the case of `CC[C@@H](NC(=O)N1CCc2cnc(N[C@H]3CC[C@H](O)C3)nc2C1)c1ccc(C(F)(F)F)c(F)c1` [Compound I-37, N—((R)-1-(3-fluoro-4-(trifluoromethyl)phenyl)propyl)-2-((1S,3S)-3-hydroxycyclopentylamino)-5,6-dihydropyrido[3,4-d]pyrimidine-7(8H)-carboxamide], the IC50 is 0.0048 µM in assay [1] and 0.093 µM in assay [2].
In the same order, the values of `COCCNC[C@@H](NC(=O)N1CCc2cnc(NC(C)C)nc2C1)c1ccc(F)c(Cl)c1` [II-41, 2-Isopropylamino-5,8-dihydro-6H-pyrido[3,4-d]pyrimidine-7-carboxylic acid [(S)-1-(3-chloro-4-fluoro-phenyl)-2-(2-methoxy-ethylamino)-ethyl]-amide] are 0.0154 µM and 1.9 µM.
In the same order, the values of `C[C@@H](NC(=O)N1Cc2nc(NC3CCOCC3)ncc2C(F)(F)C1)c1ccc(Cl)c(Cl)c1` [Compound I-50, (R)—N-(1-(3,4-dichlorophenyl)ethyl)-5,5-difluoro-2-(tetrahydro-2H-pyran-4-ylamino)-5,6-dihydropyrido[3,4-d]pyrimidine-7(8H)-carboxamide] are 0.0016 µM and 0.0283 µM.
For `C[C@@H](NC(=O)N1CCc2cnc(NC3CC(=O)N(C)C3)nc2C1)c1ccc(Cl)c(F)c1` (stereo partly shown) [II-267, 2-(1-Methyl-5-oxo-pyrrolidin-3-ylamino)-5,8-dihydro-6H-pyrido[3,4-d]pyrimidine-7-carboxylic acid [1-(4-chloro-3-fluoro-phenyl)-ethyl]-amide], the IC50 in assay [1] was 0.0201 µM; in assay [2], 28 µM.
With `O=C(NC(c1ccc(Cl)c(F)c1)c1nnco1)N1CCc2cnc(NC3CCOCC3)nc2C1` (stereo in doubt) [II-359, 2-(Tetrahydro-pyran-4-ylamino)-5,8-dihydro-6H-pyrido[3,4-d]pyrimidine-7-carboxylic acid [(R)-(4-chloro-3-fluoro-phenyl)-[1,3,4]oxadiazol-2-yl-methyl]-amide], the IC50 in assay [1] turned out to be 0.0024 µM; in assay [2], 0.03 µM.
The matching figures for `CC(C)Nc1ncc2c(n1)CN(C(=O)CCc1ccc(Cl)cc1Cl)CC2` [II-24, 3-(2,4-Dichloro-phenyl)-1-(2-isopropylamino-5,8-dihydro-6H-pyrido[3,4-d]pyrimidin-7-yl)-propan-1-one]: 0.244 µM and 50 µM.
In the same order, the values of `CC(NC(=O)N1CCc2cnc(NC3CCOCC3)nc2C1)c1ccc2cc[nH]c2c1` (stereo not shown) [Compound I-107, N-(1-(1H-indol-6-yl)ethyl)-2-(tetrahydro-2H-pyran-4-ylamino)-5,6-dihydropyrido[3,4-d]pyrimidine-7(8H)-carboxamide] are 0.0027 µM and 0.03 µM.
As for `O=C(NC(c1cn[nH]c1)c1ccc(Cl)c(F)c1)N1CCc2cnc(NC3CCOCC3)nc2C1` (stereo not shown) [Compound I-7, N-((4-chloro-3-fluorophenyl)(1H-pyrazol-4-yl)methyl)-2-(tetrahydro-2H-pyran-4-ylamino)-5,6-dihydropyrido[3,4-d]pyrimidine-7(8H)-carboxamide], the half-maximal inhibitory concentration (IC50) in assay [1] came to 0.0015 µM; in assay [2], 0.0435 µM.
For `CCOc1cc(Nc2ncc3c(n2)CN(C(=O)N[C@H](C)c2ccc(Cl)c(Cl)c2)CC3)ccn1` [Compound I-35, (R)—N-(1-(3,4-dichlorophenyl)ethyl)-2-(2-ethoxypyridin-4-ylamino)-5,6-dihydropyrido[3,4-d]pyrimidine-7(8H)-carboxamide], the IC50 in assay [1] stood at 0.0056 µM; in assay [2] it was 0.0913 µM.
In the same order, the values of `O=C(N[C@H](CO)c1ccc(F)c(Cl)c1)N1CCc2cnc(Nc3ccc(Cl)c(F)c3)nc2C1` [II-61, 2-(4-Chloro-3-fluoro-phenylamino)-5,8-dihydro-6H-pyrido[3,4-d]pyrimidine-7-carboxylic acid [(S)-1-(3-chloro-4-fluoro-phenyl)-2-hydroxy-ethyl]-amide] are 0.21 µM and 21.3 µM.
The matching figures for `CC(C)Nc1ncc2c(n1)CN(C(=O)N[C@@H](c1ccc(Cl)c(Cl)c1)[C@H](O)CO)CC2` [Compound I-62, N-((1S,2S)-1-(3,4-dichlorophenyl)-2,3-dihydroxypropyl)-2-(isopropylamino)-5,6-dihydropyrido[3,4-d]pyrimidine-7(8H)-carboxamide]: 0.0024 µM and 0.109 µM.
In the same order, the values of `C[C@@H](NC(=O)N1CCc2cnc(N[C@H]3C[C@@H](O)C3)nc2C1)c1ccc(Cl)c(Cl)c1` [II-371, 2-((1S,3S)-3-Hydroxy-cyclobutylamino)-5,8-dihydro-6H-pyrido[3,4-d]pyrimidine-7-carboxylic acid [(R)-1-(3,4-dichloro-phenyl)-ethyl]amide] are 0.00315 µM and 0.09 µM.
`O=C(NCc1ccc2cc[nH]c2c1)N1CCc2cnc(NC3CCOCC3)nc2C1` [II-223, 2-(Tetrahydro-pyran-4-ylamino)-5,8-dihydro-6H-pyrido[3,4-d]pyrimidine-7-carboxylic acid (1H-indol-6-ylmethyl)-amide]: the IC50 in assay [1] stood at 0.0057 µM; in assay [2] it was 0.186 µM.
Consider `C[C@@H](NC(=O)N1CCc2cnc(NC3CCN(C)CC3)nc2C1)c1ccc(Cl)c(Cl)c1` [Compound I-83, (R)—N-(1-(3,4-dichlorophenyl)ethyl)-2-(1-methylpiperidin-4-ylamino)-5,6-dihydropyrido[3,4-d]pyrimidine-7(8H)-carboxamide], for which the IC50 amounted to 0.113 µM in assay [1] and 2.5 µM in assay [2].
In the same order, the values of `CC(C)Nc1ncc2c(n1)CN(C(=O)N[C@H](CN)c1ccc(F)c(Cl)c1)CC2` [II-7, 2-Isopropylamino-5,8-dihydro-6H-pyrido[3,4-d]pyrimidine-7-carboxylic acid [(S)-2-amino-1-(3-chloro-4-fluoro-phenyl)-ethyl]-amide] are 0.0019 µM and 50 µM.
For `O=C(N1CCc2cnc(NC3CCOCC3)nc2C1)N1CCCC1c1ccc(F)cc1` (stereo not shown) [Compound I-134, (2-(4-fluorophenyl)pyrrolidin-1-yl)(2-(tetrahydro-2H-pyran-4-ylamino)-5,6-dihydropyrido[3,4-d]pyrimidin-7(8H)-yl)methanone], the IC50 in assay [1] was 0.0204 µM; in assay [2] it was 1.2 µM.
The matching figures for `CC(C)Nc1ncc2c(n1)CN(C(=O)N[C@H](CNc1ncccn1)c1ccc(F)c(Cl)c1)CC2` [II-50, 2-Isopropylamino-5,8-dihydro-6H-pyrido[3,4-d]pyrimidine-7-carboxylic acid [(S)-1-(3-chloro-4-fluoro-phenyl)-2-(pyrimidin-2-ylamino)-ethyl]-amide]: 0.00443 µM and 1 µM.
The matching figures for `CNC[C@@H](NC(=O)N1CCc2cnc(NC(C)C)nc2C1)c1ccc(C(F)(F)F)c(F)c1` [Compound I-66, (S)—N-(1-(3-fluoro-4-(trifluoromethyl)phenyl)-2-(methylamino)ethyl)-2-(isopropylamino)-5,6-dihydropyrido[3,4-d]pyrimidine-7(8H)-carboxamide hydrochloride]: 0.0041 µM and 0.132 µM.
`CC(C)Nc1ncc2c(n1)CN(C(=O)NC1(c3ccc(Cl)c(Cl)c3)CCNCC1)CC2` [Compound I-93, N-(4-(3,4-dichlorophenyl)piperidin-4-yl)-2-(isopropylamino)-5,6-dihydropyrido[3,4-d]pyrimidine-7(8H)-carboxamide]: the IC50 was found to be 0.0038 µM in assay [1] and 6.2 µM in assay [2].
In the same order, the values of `CC(C)Nc1ncc2c(n1)CN(C(=O)NCc1cc3ccccc3[nH]1)CC2` [II-195, 2-Isopropylamino-5,8-dihydro-6H-pyrido[3,4-d]pyrimidine-7-carboxylic acid (1H-indol-2-ylmethyl)-amide] are 0.0066 µM and 0.281 µM.
The matching figures for `Cn1ccc(C(NC(=O)N2CCc3cnc(NC4CCOCC4)nc3C2)c2ccc(Cl)c(F)c2)n1` (stereo not shown) [Compound I-3, N-((4-chloro-3-fluorophenyl)(1-methyl-1H-pyrazol-3-yl)methyl)-2-(tetrahydro-2H-pyran-4-ylamino)-5,6-dihydropyrido[3,4-d]pyrimidine-7(8H)-carboxamide]: 0.0038 µM and 0.101 µM.
The matching figures for `CC(C)Nc1ncc2c(n1)CN(C(=O)N[C@H](CNS(C)(=O)=O)c1ccc(F)c(Cl)c1)CC2` [II-43, 2-Isopropylamino-5,8-dihydro-6H-pyrido[3,4-d]pyrimidine-7-carboxylic acid [(S)-1-(3-chloro-4-fluoro-phenyl)-2-methanesulfonylamino-ethyl]-amide]: 0.0071 µM and 0.917 µM.
In the case of `O=C(N1CCc2cnc(NC3CCOCC3)nc2C1)N1CCC[C@H]1c1ccccc1` [Compound I-130, (S)-(2-phenylpyrrolidin-1-yl)(2-(tetrahydro-2H-pyran-4-ylamino)-5,6-dihydropyrido[3,4-d]pyrimidin-7(8H)-yl)methanone], the IC50 turned out to be 0.123 µM in assay [1] and 10 µM in assay [2].
